Assay results as given in ChEMBL document CHEMBL5126664, “Anti-Epstein-Barr Viral Agents from the Medicinal Herb-Derived Fungus Alternaria alstroemeriae Km2286” (J Nat Prod, 2022).
Each block holds one molecule with its values, some of them ahead of it.

How the values were obtained:
[1] = tested on: Human gammaherpesvirus 4; test: Antiviral activity against EBV infected in P3HR1 cells assessed as decrease in Rta cells at 10 uM measured after 24 hrs by Western blot analysis relative to control; format: functional; details: human gammaherpesvirus 4, P3HR-1
[2] = tested on: BV-2; test: Antiinflammatory activity in mouse BV2 cells assessed as reduction in LPS-induced nitric oxide production at 10 uM by colorimetric assay relative to control; format: functional
[3] = tested on: Human gammaherpesvirus 4; test: Antiviral activity against EBV infected in P3HR1 cells assessed as decrease in viral replication; format: functional, organism-based; details: human gammaherpesvirus 4, P3HR-1
[4] = Cytotoxicity against human P3HR1 cells; format: toxicity, cell-based, P3HR-1
[5] = Selectivity index, ratio of CC50 for human P3HR1 cells to EC50 for EBV; format: toxicity; details: read-out: Ratio CC50/EC50
[6] = tested on: BV-2; test: Antiinflammatory activity in mouse BV2 cells assessed as reduction in LPS-induced nitric oxide production by colorimetric assay; format: functional, cell-based

Compound: CC[C@H](C)[C@H]1NC(=O)C(C(C)=O)=C1O
inhibition at 10 µM [1]: -5% | inhibition at 10 µM [2]: 41.1%

EC50 [3]: 1.21 µM | IC50 [6]: 2.73 µM
Compound: CO[C@H]1c2c3c4c(c(O)ccc4c4ccc(O)c(c24)[C@@H](O)[C@H]1O)C(=O)C=C3
inhibition at 10 µM [1]: 100% | CC50 [4]: 60.1 µM | selectivity ratio [5]: 49.7 | inhibition at 10 µM [2]: 105%

Compound: O=C1C=Cc2c3c4c(c(O)ccc4c4ccc(O)c1c24)[C@@H](O)[C@@H](Cl)[C@H]3O
inhibition at 10 µM [1]: 100% | EC50 [3]: 1.51 µM | CC50 [4]: 39.4 µM | selectivity ratio [5]: 26.1 | inhibition at 10 µM [2]: 94.9% | IC50 [6]: 0.73 µM

EC50 [3]: 0.17 µM | IC50 [6]: 0.33 µM
Compound: O=C1C[C@H](SCC(O)C(=O)O)[C@@]2(O)c3c(ccc(O)c31)-c1ccc(O)c3c1[C@@H]2[C@@H](Cl)[C@H](O)[C@@H]3O (stereo partly drawn)
inhibition at 10 µM [1]: 100% | CC50 [4]: 2.3 µM | selectivity ratio [5]: 13.5 | inhibition at 10 µM [2]: 102%

Compound: O=C1C=Cc2c3c4c(c(O)ccc4c4ccc(O)c1c24)[C@@H](O)[C@H](Cl)[C@@H]3O
inhibition at 10 µM [1]: 100% | EC50 [3]: 3.13 µM | CC50 [4]: > 100 µM | selectivity ratio [5]: > 32 | inhibition at 10 µM [2]: 76.2% | IC50 [6]: 2.06 µM

Compound: O=C1C=Cc2c3c4c(c(O)ccc4c4ccc(O)c1c24)[C@@H](O)[C@H](O)[C@@H]3O
inhibition at 10 µM [1]: 100% | EC50 [3]: 1.34 µM | CC50 [4]: 86.1 µM | selectivity ratio [5]: 64.3 | inhibition at 10 µM [2]: 20.2%

EC50 [3]: 2.42 µM | IC50 [6]: 4.08 µM
Compound: O=C1C[C@H](O)[C@H]2c3ccc(O)c4c3[C@H](c3ccc(O)c1c32)[C@@H](O)[C@@H](Cl)[C@@H]4O
inhibition at 10 µM [1]: 100% | CC50 [4]: 61.2 µM | selectivity ratio [5]: 25.3 | inhibition at 10 µM [2]: 92.1%

IC50 [6]: 2.69 µM
Compound: COc1cc(/C=C/C(=O)CC(=O)/C=C/c2ccc(O)c(OC)c2)ccc1O [CURCUMIN]

IC50 [6]: 3.25 µM
Compound: O=C1C[C@@H](O)[C@@H]2c3ccc(O)c4c3[C@@H](c3ccc(O)c1c32)[C@H](O)CC4=O [STEMPHYPERYLENOL]
inhibition at 10 µM [1]: 34% | inhibition at 10 µM [2]: 77.4%

Compound: CC[C@H](C)[C@@H]1NC(=O)C(C(C)=O)=C1O [TENUAZONIC ACID]
inhibition at 10 µM [1]: 23% | inhibition at 10 µM [2]: 62.9%
